In publication PMC6393386 (Frontiers in Pharmacology, 2019):

Columns and labels:
[1] = molecular target: T1, Smo (smoothened), wild type hSmo (Homo sapiens, UniProt Q99835); test: BODIPY-cyclopamine competition in hSmo-transfected HEK293 cells (positive control); type: cell-based
T1 construct: wild type hSmo expressed in HEK293 cells

[2] = molecular target: T1, Smo (smoothened), wild type hSmo; test: BODIPY-cyclopamine competition in hSmo-transfected HEK293 cells (microscopy and flow cytometry); type: cell-based

T1 sequence (Q99835 28-787): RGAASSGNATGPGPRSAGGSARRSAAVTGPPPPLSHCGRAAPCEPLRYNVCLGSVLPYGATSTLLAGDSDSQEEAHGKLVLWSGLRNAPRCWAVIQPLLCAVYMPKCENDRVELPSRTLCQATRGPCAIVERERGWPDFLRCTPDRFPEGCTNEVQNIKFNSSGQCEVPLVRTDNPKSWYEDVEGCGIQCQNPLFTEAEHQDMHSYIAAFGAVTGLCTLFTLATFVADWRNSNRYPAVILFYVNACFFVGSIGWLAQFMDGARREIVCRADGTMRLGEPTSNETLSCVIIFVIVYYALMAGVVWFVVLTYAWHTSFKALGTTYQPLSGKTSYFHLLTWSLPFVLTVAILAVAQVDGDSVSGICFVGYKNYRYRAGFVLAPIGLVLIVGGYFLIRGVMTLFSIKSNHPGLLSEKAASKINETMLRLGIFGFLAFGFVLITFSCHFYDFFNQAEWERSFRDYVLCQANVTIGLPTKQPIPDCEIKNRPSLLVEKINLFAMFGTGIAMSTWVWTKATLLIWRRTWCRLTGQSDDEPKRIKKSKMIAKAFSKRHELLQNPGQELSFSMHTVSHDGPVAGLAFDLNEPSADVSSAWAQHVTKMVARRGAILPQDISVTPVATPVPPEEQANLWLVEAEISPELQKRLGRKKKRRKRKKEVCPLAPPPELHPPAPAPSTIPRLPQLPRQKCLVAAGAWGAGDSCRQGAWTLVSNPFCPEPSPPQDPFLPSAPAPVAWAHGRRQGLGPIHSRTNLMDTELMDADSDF

CC1=C2C[C@H]3[C@@H](CC=C4C[C@@H](O)CC[C@@]43C)[C@@H]2CC[C@]12O[C@@H]1C[C@H](C)CN[C@H]1[C@H]2C [cyclopamine]
BODIPY-cyclopamine competition in hSmo-transfected HEK293 cells (positive contro) [1]: It was similar to the positive control, cyclopamine

Cc1c(-c2ccnn2C)nnc(N2CCC(NC(=O)c3ccc(F)cc3C(F)(F)F)CC2)c1C [L-4]
BODIPY-cyclopamine competition in hSmo-transfected HEK293 cells (microscopy and) [2]: there was a dose-dependent replacement of BODIPY-cyclopamine by L-4
